These results are taken from US9783536B2, “Nitrogen-containing heterocyclic compound or salt thereof” (FUJIFILM Corporation, priority 2013, dated 2017).

pIC50: −log10 of the molar value.

Common to all, as to format: biochemical
Test [1] has as its target T1, human PI3Kα protein (Homo sapiens, UniProt P42336).
T1 construct: purchased Carna Biosciences, Inc; host or cells: baculovirus expression system
Description: PI3Kα enzyme assay (ADP-Glo). Conditions: 4.5 nmol/L PI3Kα, PIP2 50 μmol/L, ATP 100 μmol/L; read-out: PI3Kα enzyme inhibitory activity. The gist of the method:
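Biotinylated human PI3Kα (baculovirus-expressed, 4.5 nmol/L) pre-incubated 15 min with compound in Tris-HCl pH 7.5, MgCl2, BSA; reaction 60 min at 25° C with 50 μmol/L PIP2 and 100 μmol/L ATP final. ADP quantified by ADP-Glo luminescence; IC50 calculated.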
A general note: In ADP-Glo the light output rises with the ADP produced.

Test [2] deals with T2, GST fusion human ERK2 protein (Homo sapiens, UniProt P28482).
T2 construct: purchased Carna Biosciences, Inc; host or cells: E. coli expression system
T2 sequence (P28482 whole entry, the tested form may be a part): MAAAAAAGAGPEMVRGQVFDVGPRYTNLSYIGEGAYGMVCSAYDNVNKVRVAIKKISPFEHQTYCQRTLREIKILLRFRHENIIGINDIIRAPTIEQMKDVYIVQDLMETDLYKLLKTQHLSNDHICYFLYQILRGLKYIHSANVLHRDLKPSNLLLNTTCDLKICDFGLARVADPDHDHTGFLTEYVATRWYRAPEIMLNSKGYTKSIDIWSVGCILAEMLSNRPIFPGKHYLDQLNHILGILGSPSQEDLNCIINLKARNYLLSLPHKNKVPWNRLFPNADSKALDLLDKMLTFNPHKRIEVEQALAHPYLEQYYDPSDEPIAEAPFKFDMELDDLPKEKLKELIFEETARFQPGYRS
Description: ERK2 enzyme assay (1). Conditions: 2.5 nmol/L ERK2, ATP 43.1 μmol/L; read-out: ERK2 enzyme inhibitory activity (1). The procedure, abridged: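 IC50 derived from the proportion of phosphorylated 5-FAM peptide, separated from unphosphorylated peptide by microfluidic mobility shift. Compound was first preincubated 15 min at room temperature with 2.5 nmol/L kinase at pH 7.5, then 43.1 μmol/L ATP plus 4.25 μmol/L substrate reacted 120 min at 25 °C.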

The target of test [3] is T2, GST fusion human ERK2 protein. Description: ERK2 enzyme assay (2). As to conditions: 1.25 nmol/L ERK2, ATP 1 mmol/L; read-out: ERK2 enzyme inhibitory activity (2). The gist of the method:
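IC50 values come from mobility-shift measurement of phosphorylated versus unphosphorylated 5-FAM peptide substrate after EDTA quench. Beforehand, compound and 1.25 nmol/L E. coli-expressed GST–human ERK2 stood 15 min at room temperature (pH 7.5), then 1 mmol/L ATP and 4.25 μmol/L substrate (final) were added for 120 min at 25 °C.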

T1 sequence (P42336 whole entry): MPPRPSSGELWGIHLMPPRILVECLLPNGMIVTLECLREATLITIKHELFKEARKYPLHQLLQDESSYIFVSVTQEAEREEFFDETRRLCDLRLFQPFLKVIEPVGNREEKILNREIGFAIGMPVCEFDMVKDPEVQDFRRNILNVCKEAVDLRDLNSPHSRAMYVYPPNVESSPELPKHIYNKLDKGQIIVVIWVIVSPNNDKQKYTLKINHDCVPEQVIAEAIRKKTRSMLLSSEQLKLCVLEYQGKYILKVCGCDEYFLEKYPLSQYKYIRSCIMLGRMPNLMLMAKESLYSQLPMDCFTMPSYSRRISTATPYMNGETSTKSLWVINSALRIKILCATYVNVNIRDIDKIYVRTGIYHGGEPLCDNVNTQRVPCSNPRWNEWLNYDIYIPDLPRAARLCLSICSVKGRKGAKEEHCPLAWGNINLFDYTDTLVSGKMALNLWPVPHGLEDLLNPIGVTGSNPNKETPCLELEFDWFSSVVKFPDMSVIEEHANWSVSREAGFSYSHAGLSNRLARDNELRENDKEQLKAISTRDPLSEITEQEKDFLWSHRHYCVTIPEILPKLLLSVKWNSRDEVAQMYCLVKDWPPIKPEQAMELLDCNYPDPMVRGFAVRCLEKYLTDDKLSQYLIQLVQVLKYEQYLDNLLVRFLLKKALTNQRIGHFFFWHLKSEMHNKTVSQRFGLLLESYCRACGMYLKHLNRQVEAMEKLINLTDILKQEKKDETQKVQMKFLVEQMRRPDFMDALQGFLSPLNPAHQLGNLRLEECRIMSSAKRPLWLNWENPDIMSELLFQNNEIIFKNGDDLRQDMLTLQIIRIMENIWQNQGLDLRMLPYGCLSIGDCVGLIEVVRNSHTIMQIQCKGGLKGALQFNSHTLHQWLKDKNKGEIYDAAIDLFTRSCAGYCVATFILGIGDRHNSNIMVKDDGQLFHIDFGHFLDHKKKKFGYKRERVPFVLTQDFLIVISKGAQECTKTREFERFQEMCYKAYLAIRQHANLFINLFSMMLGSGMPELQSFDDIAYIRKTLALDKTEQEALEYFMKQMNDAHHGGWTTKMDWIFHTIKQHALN
T1 sequence (P27986 whole entry partner): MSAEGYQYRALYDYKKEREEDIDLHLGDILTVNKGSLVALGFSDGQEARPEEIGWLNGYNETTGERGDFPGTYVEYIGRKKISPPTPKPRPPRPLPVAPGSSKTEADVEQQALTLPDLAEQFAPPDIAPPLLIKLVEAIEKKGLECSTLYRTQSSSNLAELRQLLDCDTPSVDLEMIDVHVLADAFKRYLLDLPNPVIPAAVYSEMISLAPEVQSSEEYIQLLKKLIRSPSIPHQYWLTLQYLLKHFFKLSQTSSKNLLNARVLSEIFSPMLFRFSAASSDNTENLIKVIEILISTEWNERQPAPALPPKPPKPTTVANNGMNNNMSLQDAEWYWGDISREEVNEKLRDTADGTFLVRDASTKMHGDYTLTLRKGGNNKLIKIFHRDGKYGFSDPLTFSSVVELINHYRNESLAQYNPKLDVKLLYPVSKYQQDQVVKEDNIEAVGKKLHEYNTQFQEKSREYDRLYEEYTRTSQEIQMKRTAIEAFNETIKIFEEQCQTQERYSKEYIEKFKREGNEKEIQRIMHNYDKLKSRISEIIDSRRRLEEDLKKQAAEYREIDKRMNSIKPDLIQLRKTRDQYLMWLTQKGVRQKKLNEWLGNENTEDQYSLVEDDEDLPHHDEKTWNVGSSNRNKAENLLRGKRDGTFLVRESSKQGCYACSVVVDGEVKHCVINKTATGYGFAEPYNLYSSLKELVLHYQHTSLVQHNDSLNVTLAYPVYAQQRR

Regarding `CCCc1nn(CCCN2CCCC2)cc1-c1cnc2ccc(Nc3nnc(C(C)C)s3)nc2c1` [Example 0147], the pIC50 in test [1], in test [2] and in test [3] was > 6.00 in each case.
As to `CCOc1nn(C)cc1-c1cnc2ccc(Nc3nnc(C(C)C)s3)nc2c1` [Example 0150], the values for the pIC50 in test [1], in test [2] and in test [3] were > 6.00, > 6.00 and 5.00 to 6.00, respectively.
As to `Cc1ccc(Nc2ccc3ncc(-c4cnn(C)c4)cc3n2)nn1` [Example 0151], the pIC50 in test [1] was 4.30 to 5.00; in test [2], > 6.00; in test [3] it was 5.00 to 6.00.
`COc1cncc(Nc2cnc3ccc(Nc4cc(C)cnn4)nc3c2)c1` [Example 0157, N^7-(5-methoxypyridin-3-yl)-N^2-(5-methylpyridazin-3-yl)-1,5-naphthyridine-2,7-diamine]: the pIC50 in test [1], in test [2] and in test [3] was > 6.00 in each case.
In the case of `Cc1cnnc(Nc2ccc3ncc(Nc4cncc(OCCN5CCOCC5)c4)cc3n2)c1` [Example 0158, N^2-(5-methylpyridazin-3-yl)-N^7-(5-(2-morpholinoethoxyl)pyridin-3-yl)-1,5-naphthyridine-2,7-diamine], the pIC50 in test [1] is > 6.00; in test [2] it was > 6.00; in test [3] it was 5.00 to 6.00.
As for `CC(C)c1cnnc(Nc2ccc3ncc(Nc4cncc(OCCN5CCOCC5)c4)cc3n2)c1` [Example 0159, N^2-(5-isopropylpyridazin-3-yl)-N^7-(5-(2-morpholinoethoxyl)pyridin-3-yl)-1,5-naphthyridine-2,7-diamine], the pIC50 in test [1], in test [2] and in test [3] was > 6.00 in each case.
Regarding `COCc1nn(C)cc1-c1cnc2ccc(Nc3cc(C(C)C)cnn3)nc2c1` [Example 0160], the pIC50 in test [1], in test [2] and in test [3] was > 6.00 each time.
In the case of `COCc1nn(C)cc1-c1cnc2ccc(Nc3cc(C)cnn3)nc2c1` [Example 0161], the pIC50 in test [1], in test [2] and in test [3] was > 6.00 in each case.
Regarding `Cn1cc(-c2cnc3ccc(Nc4nnc(C(C)(C)C)s4)nc3c2)cn1` [Example 0162], the pIC50 in test [1], in test [2] and in test [3] was > 6.00 each time.
On to `CCc1nnc(Nc2ccc3ncc(-c4cnn(C)c4)cc3n2)s1` [Example 0163], for which the pIC50 in test [1], in test [2] and in test [3] was > 6.00 each time.
In the case of `CC(C)c1nnc(Nc2ccc3ncc(-c4cnn(C)c4)cc3n2)s1` [Example 0167, 5-Isopropyl-N-(7-(1-methyl-1H-pyrazol-4-yl)-1,5-naphthyridin-2-yl)-1,3,4-thiadiazole-2-amine], the pIC50 in test [1], in test [2] and in test [3] was > 6.00 in each case.
Turning to `COCc1nnc(Nc2ccc3ncc(-c4cnn(C)c4)cc3n2)s1` [Example 0170, 5-(Methoxymethyl)-N-(7-(1-methyl-1H-pyrazol-4-yl)-1,5-naphthyridin-2-yl)-1,3,4-thiadiazole-2-amine], the pIC50 in test [1] was 5.00 to 6.00; in test [2], > 6.00; in test [3], > 6.00.
As to `Cn1cc(-c2cnc3ccc(Nc4nnc(C5CCCC5)s4)nc3c2)cn1` [Example 0172, 5-cyclopentyl-N-(7-(1-methyl-1H-pyrazol-4-yl)-1,5-naphthyridin-2-yl)-1,3,4-thiadiazole-2-amine], the pIC50 in test [1], in test [2] and in test [3] was > 6.00 throughout.
With `Cn1cc(-c2cnc3ccc(Nc4nnc(N5CCCC5)s4)nc3c2)cn1` [Example 0173, N-(7-(1-methyl-1H-pyrazol-4-yl)-1,5-naphthyridin-2-yl)-5-(pyrrolidin-1-yl)-1,3,4-thiadiazole-2-amine], the pIC50 in test [1] is 5.00 to 6.00; in test [2] it was > 6.00; in test [3], > 6.00.
